The results in this text go back to US10711011B2, “Substituted oxazolidines as anti-bacterial agents” (BUGWORKS RESEARCH, INC., priority 2016, dated 2020).

The structures appear in SMILES notation. Converted amounts (≈) assume the structure as drawn. Read-outs that look alike come from different tables or passages of the source.

One data set has as its system K. pneumoniae ATCC 13883. Kind of data set: Minimum Inhibitory Concentration (MIC) in LB media. Type of data set: cell-based, Klebsiella pneumoniae. Conditions: Klebsiella pneumoniae, ATCC13883, LB Media.
Data set [1] can be described thus: Mouse intravenous pharmacokinetics. Type of data set: in vivo, BALB/c mice. Conditions: 2 mg/kg. Here is the method:
To assess the Oral and Intravenous pharmacokinetic profile of Example 13, pharmacokinetics (PK) of Example 13 was characterized in BALB/c mice following single intravenous (i.v.) dose of 2 mg/kg and single escalating oral doses of 2, 10, 50 and 100 mg/kg, respectively. This study was performed following all ethical practices as laid down in the guidelines for animal care (Registration number No. 1852/PO/Rc/S/16/CPCSEA). The study was approved by the Institutional Animals Ethics Committee (IAEC) of the test facility. For IVPK in BALB/c mice, the formulation used was DMSO: PEG400: Ethanol: Water (10:20:10:60 v/v) and Example 13 administered as solution. For POPK, the formulation used was 0.1% Tween80 in 0.25% CMC and Example 13 administered as suspension through an oral gavage. The plasma (mice) samples were analyzed by LC-MS/MS. PK parameters were estimated by non-compartmental analysis in Phoenix WinNonlin 6.4 The results of the per-oral and intravenous PK study of Example 13 are presented in Table 4 and 5

The subject of another data set is E. coli [ATCC 25922]. Kind of data set: In vivo efficacy in the mouse E. coli thigh infection model. The settings on record: neutropenic BALB/c mice, oral. Here is the method: To assess the Oral efficacy, Example 13 was tested in BALB/c mice thigh infection model following per oral doses of 100 mg/kg once, 50 mg/kg once and twice, 33 mg/kg thrice and 25 mg/kg four times over a 24 hour period post infection. This study was performed following all ethical practices as laid down in the guidelines for animal care (Registration number No. 1852/PO/Rc/S/16/CPCSEA). The study was approved by the Institutional Animals Ethics Committee (IAEC) of the test facility. The formulation used was 0.1% Tween80 in 0.25% CMC and Example 13 administered as suspension through an oral gavage. Neutropenic mice were infected with [˜1×10^6 CFU/mouse] E. coli [ATCC 25922] by intramuscular route. Two hours post infection, mice were treated orally with total doses of 100, 50, 50, 33 and 25 mg/kg of Example 13 as one, two, three and four equally divided doses over a 24 h period. Animals were sacrificed 24 hr post infection and thigh tissues were harvested to enumerate the bacterial CFU count. Thigh muscles were placed in 1 ml of sterile LB broth and homogenized using a homogenizer (Omni Tip (220 volt hand held)). Serial ten-fold dilutions of the thigh homogenates were prepared in sterile LB broth, 0.05 ml of four dilutions for each thigh was plated onto Lactose agar plates. […]

Setting [2] is: BALB/c, mouse, plasma, iv, mice.

The MIC is the lowest concentration found to suppress growth. The low end stands for greater potency, the high end for weaker potency. A word on the half-life: it is the time in which the quantity being followed falls by half. A low value points to fast loss. What is called AUC(0-inf) is the area under the concentration-time curve extrapolated to infinity. Higher therefore signals more exposure. As a reminder, the AUC(0-t) is the area under the concentration-time curve up to a stated or last time point. Consider `CN1C(=O)Cc2ccc(F)c(CCNCCC3CN(c4ccc5c(n4)NC(=O)CO5)C(=O)O3)c21` (single isomer, unassigned) [Example 13, 6-(5-(2-((2-(6-fluoro-1-methyl-2-oxoindolin-7-yl)ethyl)amino)ethyl)-2-oxooxazolidin-3-yl)-2H-pyrido[3,2-b][1,4]oxazin-3(4H)-one], for which, in the data set with K. pneumoniae ATCC 13883, the MIC worked out at 0.125 µg/mL (≈ 0.266 µM). Moreover, the clearance in data set [1] (BALB/c, mouse, plasma, iv, BALB/c mice, single i.v. dose of 2.0 mg/kg, read-out: systemic clearance (converted)) is 95 mL/min/kg. Also, the Vd in data set [1] (BALB/c, mouse, plasma, iv, BALB/c mice, single i.v. dose of 2.0 mg/kg, read-out: volume of distribution at steady state) came out at 13.3 L/kg. Moreover, in data set [1] (setting [2]), the half-life is 1.7 h, the AUC(0-inf) turned out to be 352 ng·h/mL and the AUC(0-t) turned out to be 352 ng·h/mL. For the same molecule, in data set [1] (BALB/c, mouse, plasma, iv, mice, i.v., read-out: CL (converted)), the clearance was 94.8 mL/min/kg. In data set [1] (BALB/c, mouse, plasma, iv, mice, i.v., read-out: Vss), the Vd worked out at 13.3 L/kg. Further, in data set [1] (mice, i.v.), the “AUC (% Extrap)” value was found to be 0.002%, the Ke was determined as 0.403 h⁻¹ and the t1/2 is 1.718 h. Besides, the “efficacy (bacterial density Log 10 CFU/thigh vs vehicle)” value in the data set on E. coli [ATCC 25922] (100 mg/kg as single, two, three and four equally divided doses over 24 h) is reported as “significant efficacy”. Besides, the “efficacy (bacterial density Log 10 CFU/thigh vs vehicle)” value in the data set with E. coli [ATCC 25922] (single dose of 50 mg/kg) is listed as “ineffective”.
